# Results from patent US6043037A, “Rapid method for measuring clastogenic fingerprints using fluorescence in situ hybridization” (The Regents of the University of California, priority 1997, dated 2000).
# Assays:
# human lymphocytes [1] = assay: S ratio measured by FISH in lymphocytes of humans exposed in vivo (benzene workers, tritium worker)
# Text: Except where noted, all data analyzed were obtained using FISH. Identification and scoring of chromosome exchange aberrations using chromosome painting to generate additional data employed the methods of J. M. Lucas, et al., Rapid translocation frequency analysis in humans decades after exposure to ionizing radiation, Int'l. […] The chromosome exchange aberrations scored here were apparently simple (AS) exchange-type painting patterns.
# The pattern resembles that of translocations. An incomplete apparently simple (AS) translocation pattern resembles that of an incomplete reciprocal translocation where the solid painted fragment contains one centromere. These aberrations are those translocations where reciprocity of the exchange event is not registered, either because the exchanged is actually incomplete, or because one of the exchanges segments involves the extreme, unpainted, terminal part of the arm.
# Incomplete apparently simple translocations were recognized as bicolor chromosome derivatives, where the centromere resides on the unpainted segment.
# Where possible, data were combined, and in some cases, additional scoring was performed to improve statistics. The blind scoring of coded photomicrographs was performed by technicians unfamiliar with the project goal. Photomicrographs were either reanalyzed from previous studies, or new photomicrographs were analyzed for this study.
# The significance estimate for testing the equality of S-ratios between any two populations compared here was calculated by a likelihood ratio test using a Generalized Linear Model (GLM) on two nested hypotheses. The four outcomes were assumed to be distributed as independent Poisson random variates with a logarithmic link function. The null hypothesis included terms for offset, population and outcome type. The alternative included an additional interaction term. […]
# human lymphocytes [2] = assay: S ratio (apparently simple translocations / incompletes) measured by FISH after in vitro exposure to clastogenic agents; type: cell-based
# Procedure: Identification and scoring of chromosome exchange aberrations was performed using FISH as described in Lucas, et al., Rapid translocation frequency analysis in humans decades after exposure to ionizing radiationi, Int'l. J. Radiat. Biol., 62:53-63 (1992). The scoring criteria used (apparently […] exchange-type painting pattern) was equivalent to those described in Simpson, et al. Estimating the true frequency of X-ray-induced complex chromosome exchanges using fluorescence in situ hybridization, Int'l. J. Radiat. Biol., 67:37-45 (1995). Only apparently simple translocations (ASTs) and dicentrics (ASD's) were used to calculate F ratios because equality for translocations and dicentrics has been shown only for AST's and ASD's mathematically (Lucas, et al., Int'l. J. Radiat. Biol., 69:145-153 (1996) and experimentally (Simpson, et al., Int'l. J. Radiat. Biol., 67:37-45 (1995); Kovacs et al., Radiation Research, 137:34-43. (1994). The translocation frequency measured by FISH was scaled to full-genome equivalents using the formula in Lucas, et al., Int'l. J. Radiat. Biol., 62:53-63 (1992), herein by reference. In brief, the formula relates the translocation frequency measured by FISH, Fp, to the genomic translocation frequencies, FG, through the fraction of the genome covered by the probes, fp, as follows:
# Cells were irradiated with ^60 Co and ^137 Cs gamma rays in order to produce aberrations and detect the frequency of their occurance. Irradiation of cells with ^60 Co and ^137 Cs gamma rays has been described elsewhere. Lucas, J. N., et al., Rapid determination of human chromosome translocation frequency using a pair of chromosome-specific DNA probes, Int'l. J. Radiat. Biol., 56:35-44 (1989). […]
# Except where noted, all data analyzed were obtained using FISH. […] The chromosome exchange aberrations scored here were apparently simple (AS) exchange-type painting patterns. Simpson, P. J. and Savage, J. R. K., Estimating the true frequency of X-ray-induced complex chromosome exchanges using fluorescence in situ hybridization, Int'l. […]
# [3] = 20 benzene workers with history of benzene poisoning, 18,583 cells
# [4] = in vitro exposure, 1800 cells (bleomycin), 5,809 cells (tritium, 0.6 Gy)
molecule,measurement,setting,value
"c1ccccc1 [Benzene, benzene]",ASTs (apparently simple / complete translocations),human lymphocytes [1]; [3],50
same,Inc (incomplete apparently simple translocations),human lymphocytes [1]; [3],25
same,S ratio compared with low-LET radiation,"human lymphocytes [1]; benzene workers, vs low-LET radiation",significantly lower than those measured for low-LET radiation
bleomycin,ASTs (apparently simple translocations),human lymphocytes [2]; [4],49
same,Inc (incomplete apparently simple translocations),human lymphocytes [2]; [4],21
same,S ratio compared with low-LET radiation,"human lymphocytes [2]; in vitro, vs low-LET radiation",significantly lower than those measured for low-LET radiation
